Tested on: myocardial ischemia-induced heart failure (HFrEF)
Test: Rat model of ischemic HFrEF, Formula I and empagliflozin alone and in combination
Assay type: in vivo
Procedure: • Male Sprague Dawley rats • Ligation of left coronary artery for 30 minutes followed by reperfusion • Post-ligation recovery for 28 days • Cardiac function 28 days after ischemia-reperfusion using a Millar pressure-volume catheter inserted in the left ventricle via the carotid artery • Record pressure-volume loops over several cardiac cycles and derived cardiac function parameters A) Rat Model of Ischemic Heart Failure with Reduced Ejection Fraction (HFrEF)

## OC[C@H]1O[C@@H](c2ccc(Cl)c(Cc3ccc(O[C@H]4CCOC4)cc3)c2)[C@H](O)[C@@H](O)[C@@H]1O [empagliflozin, reference compound]
  improvement in ejection fraction: ~30%
  improvement in end systolic volume: ~30%

Source: patent publication US20250099455A1, “TREATMENT FOR CONGESTIVE HEART FAILURE” (FibroGen, Inc., priority 2022, published 2025)
